Measured values: publication PMC6359455, “Partial Solvation Parameters of Drugs as a New Thermodynamic Tool for Pharmaceutics” (Pharmaceutics, 2019)

Assays:
[1] = Differential scanning calorimetry (enthalpy of fusion); type: physicochemical; conditions: DSC, 10 °C/min, triplicate
Experimental: Differential scanning calorimetry (DSC) thermograms were obtained using a DSC 1 instrument from Mettler-Toledo AG (Greifensee, Switzerland). The instrument was calibrated for temperature and enthalpy using indium. Nitrogen was used as protective gas (150 mL/min). Samples (2–3 mg) were placed in 40 μL aluminum pans with pierced aluminum lids (Mettler-Toledo AG, Greifensee, Switzerland). The melting onset temperature (Tm) and the enthalpy of fusion (ΔHf) were determined by heating the samples at 10 °C/min from 25 °C to a maximum temperature of 300 °C. All DSC measurements were carried out in triplicate.

[2] = Surface energy components by IGC with the PSP/LSER method; type: physicochemical; conditions: for γd (dispersion component of surface energy): IGC, Dorris–Gray method, amorphous drug, 30 °C; for γhb (hydrogen-bonding surface energy component) / γa (acidic surface energy component) / γb (basic surface energy component) / γtot (total surface energy): PSP/LSER method; for γa (acidic surface energy component) / γb (basic surface energy component): Equation (27), unit assumed; for γtot (total surface energy): Equation (36)
Experimental: (§1) Inverse gas chromatography (IGC) was used to analyze solid samples packed into a chromatographic column as stationary phase. The equipment was a surface energy analyzer (iGC-SEA) from Surface Measurement Systems Ltd. (London, UK) and about 200 mg of each drug was inserted into silanized glass columns (3 mm inner diameter) by employing a standardized packing method with silanized glass wool that was used at both ends of the column as fixation. Prior to each measurement, the samples were conditioned for 1 h at 30 °C with dry helium with 0% relative humidity at a flow rate of 15 standard cubic centimeters per minute (sccm). Dead volume of the system was determined by injecting the inert probe methane prior and after each measurement. This stationary phase was flushed with an inert carrier gas—helium in the present study. Measuring conditions were the same as applied for sample conditioning, except for a flow rate of 10 sccm that was used. For all experiments, a relative surface coverage of 5% was selected.
The PSP framework can also be used for the estimation of the surface energy components of the studied drugs. However, there are practically no data on the total surface energies of drugs available in the literature. Instead, the dispersion components, γd, were determined by the Dorris–Gray method. This dispersion component is practically equivalent to our nonhydrogen-bonding component, γVES. Thus, we may use Equation (29) in the equivalent form of Equation (36) and obtain the total surface energy of the drugs, γtot: (36) γtot=γd3.1Vx+E+S+2AB/3.1Vx+E+S.
In a similar manner, the acidity and basicity components of the surface energy are obtained from Equation (27).

[3] = LSER descriptors by PSP approach from experimental inverse gas chromatography (IGC) data; type: physicochemical; conditions: initial or tentative estimates; for A (PSP): LSER acidity descriptor; for B (PSP): LSER basicity descriptor; for S (PSP): LSER polarity descriptor
Experimental: as §1
The extent of interactions between the solid phase of interest and the probe gas is obtained by the net retention volume VN:(31) VN=j/mF(tR−t0)T/273.15, where T is the column temperature, F is the carrier gas flow rate at 1 atm and 273.15 K, m is the sample mass, tR is the retention time of the absorbed probe gas and t0 is the mobile phase hold up time, and finally, j represents the James–Martin correction (that adjusts retention time for the pressure drop effect in the column bed). The calculated retention volume VN is then used to estimate the mass activity coefficient, Ω at infinite dilution:(32) ln(Ω)=ln(273.15R/p0M1VN)−p0(B11−V1)/RT, where po is the saturation pressure and M is the molecular mass, while B11 is the second virial coefficient and V1 holds for molar volume of the probe gas. Conversion of the mass activity coefficient Ω to mole fraction activity coefficient γ (at infinite dilution) is done via the following equation:(33) lnγ1res,∞=ln(Ω1M1/M2)−(lnr1/r2+1−r1/r2)=r1χ12. and provided the basis for further thermodynamic analysis, as described in the Results section.
The PSP approach was used to characterize the studied drugs, that is, to determine their LSER descriptors from the experimental IGC data. The McGowan volume, Vx, is an atom-specific quantity and, thus, it is obtained either from the ACD software or from the freely accessible database via their SMILES form. […].
A and B descriptors were then obtained from IGC data with hydrogen-bonding probes (acidic, like chloroform, basic, like acetone, and homosolvated, like ethanol) correlated with Equation (34).

[4] = Residual solid XRPD analysis after solubility equilibration in solvents; type: physicochemical; conditions: 24 h equilibration at room temperature in solvent
Experimental: All experiments were performed in triplicate. The drug concentration in the solvent bulk phase was determined simultaneously with a residual solid analysis of the drug by means of XRPD to detect possible solvent-mediated phase changes. Such residual solid analysis has been published before for a different miniaturized assay. […] The closed vials were equilibrated for 24 h by magnetic stirring at room temperature. […] An isocratic flow of a mixture of solvent A and solvent B was initially applied for 0.3 min at a flow rate of 0.75 mL/min. […] Table 1 summarizes the experimental conditions (initial composition of mobile phase, detection wave length) used for the different drugs. For solid state analysis, approx. 10-20 mg of the residual wet solids was manually transferred into a 96-well MultiScreen® Solubility Filter Plate (Millipore, Bedford, MA, USA) by a spatula. The filter plate was immediately sealed with adhesive acetate foil for microtest well plates (Sarstedt Inc., Newton, NC, USA) to minimize solvent evaporation. Solid state analysis of residual solids was based on a high-throughput XRPD method using a […] […] Samples were analyzed directly in the 96-well filter plate with an exposure time of 5 min per well.

[5] = Cohesive energy (solubility-parameter) components by the PSP/LSER method

Row | SMILES | ΔH^m (heat of fusion) [1] [kcal/mol] | γd (dispersion component of surface energy) [2] [mJ/m^2] | γhb (hydrogen-bonding surface energy component) [2] [mJ/m^2] | γa (acidic surface energy component) [2] [mJ/m^2] | γb (basic surface energy component) [2] [mJ/m^2] | γtot (total surface energy) [2] [mJ/m^2] | A (PSP) [3] | B (PSP) [3] | S (PSP) [3] | Residual solid form after solubility equilibration (XRPD) [4] | σGa (acidity PSP) [5] [MPa^0.5] | σGb (basicity PSP) [5] [MPa^0.5] | σd (dispersion PSP) [5] [MPa^0.5] | σhb (hydrogen-bonding PSP) [5] [MPa^0.5] | σp (polarity PSP) [5] [MPa^0.5] | σtot (square root of total cohesive energy density, equivalent to δtot) [5] [MPa^0.5]
1 | COc1ccccc1OCCNCC(O)COc1cccc2[nH]c3ccccc3c12 (stereo not shown) [Carvedilol, carvedilol] | 11.32 ± 0.0884 | 47.83 | 5.13 | 1.51 | 4.37 | 52.96 | 0.50 | 1.45 | 3.19 | a changed solid form in dichloromethane after equilibration | 3.92 | 6.68 | 19.75 | 8.14 | 9.91 | 
2 | COc1cc(C(=O)NS(=O)(=O)c2ccccc2C)ccc1Cc1cn(C)c2ccc(NC(=O)OC3CCCC3)cc12 [Zafirlukast, zafirlukast] | 4.68 ± 0.406 | 49.43 | 5.64 | 1.64 | 4.85 | 55.07 | 0.71 | 2.1 | 4.66 | at least one different solid form following equilibration | 4.03 | 6.94 | 19.60 | 9.01 | 10.33 | 23.92
